Assays:
globular somatic embryos = test: Somatic embryo maturation (two-step maturation procedure); format: cell-based, Acacia mangium; settings: ½ MS maturation media
Procedure: (§1) All media were adjusted to pH 5.8 after autoclaving at 121° C. for 25 min. Plant growth regulators tested in experiments were added into media after autoclaving but other additional substances were added into media before autoclaving. All cultures were maintained under the warm white fluorescent lights at a range of irradiance of 23.41-26.01 μmol.s^−1m^−2, with 16 h photoperiod and at 28° C.
Globular embryos (FIGS. 1B-C) induced from induction medium containing IAA 0.25 mg/l and TDZ 2.0 mg/l (AM-304) were cultured on ½ MS basal medium supplemented with 0-5.0 mg/l of GA3, 30-50 g/l of sucrose, Vc 100 mg/l, Asn 150 mg/l, CH 100 mg/l, Gln 150 mg/l, Pro 150 mg/l, phytagel 0.35% (g/l), and activated charcoal 0.1% for thirty days. Somatic embryos were then transferred onto maturation medium AM-425 and cultured for 40 days. Cotyledon somatic embryos (mature somatic embryos) were then transferred onto the medium AM-424 for germination. Each experiment was repeated twice with a total of 250 globular somatic embryos for each medium combination. Seedlings were transferred to ½ MS basal medium containing sucrose 20 g/l as well as phytagel 0.35% and cultured for two months before being transferred to pot soil consisting of peat soil: sand (3:1). […]

[1] = tested on: A. mangium immature embryo axes; test: Embryogenic callus induction from immature embryo axes; format: cell-based, Acacia mangium; settings: immature embryo axes on MS basal medium
Procedure: One and half months old immature green pods were collected from twenty-meter high adult A. mangium Willd. trees at Science Park Drive of Singapore. Green seeds were gently isolated from pods and washed with sterile double deionized water (ddH2O) 4-5 times. After green seeds were surface sterilised with 30% market clorox bleach (NaClO) for 5 minutes and washed with sterile ddH2O 5 times, the seeds were sterilised again with 0.1% HgCl2 for 6 minutes and washed with sterile ddH2O 5 times. Seed coats were removed with sterilised forceps and embryos were isolated. Embryo axes (EA) (FIG. 1A) were gently separated with sterile forceps and used as explants for embryogenic callus induction.
as §1, with “28° C. […]” for “28° C.”

SMILES | development of globular somatic embryos to torpedo and cotyledon stage (result in words) (globular somatic embryos) | embryogenic callus induction / somatic embryogenesis (result in words) [1]
C=C1C[C@]23C[C@@]1(O)CC[C@H]2[C@@]12C=C[C@H](O)[C@@](C)(C(=O)O1)[C@H]2[C@@H]3C(=O)O [GA3, Gibberellic Acid] | promoted somatic embryo maturation | 
O=C(Nc1ccccc1)Nc1cnns1 [TDZ, 1-Phenyl-3-(1,2,3-thiadiazol-5-yl)Urea] |  | effective to induce embryogenic callus

From US6673608B1, “Somatic embryogenic regeneration of Acacia mangium” (Institute of Molecular Agrobiology, priority 2002, dated 2004)
